Where two headings read alike, the source gives them in different places.
Experiments:
[1] = tested on: DU145 cells; test: Antiproliferative assay in DU145 cells, WST-1 cell proliferation assay, 96 hours (GI50); type: cell-based; conditions: triplicate
Experimental: Antiproliferative assays. DU145 cells were seeded into 96 well microtiter plates (5000 cells/well) and treated with […] of compounds or with vehicle control. At 96 hours post-treatment, live cell counts were determined by WST-1 cell proliferation assay (Roche, Penzberg, Germany), as per manufacturer's instructions. Viability results were expressed as a percentage of mean control values resulting in the calculation of the 50% growth inhibition (GI50). All experiments were performed in triplicate.

[2] = Homo sapiens, DU-145, 96 hours post-treatment
[3] = 96 hours post-treatment, read-out: DU-145 GI50

SMILES	GI50 [1, 3] [µM]	melting point [°C]	further results
COc1ccc(OC)c(CN2CCc3cc(OCc4ccccc4)c(OC)cc3C2)c1 [compound 21, 6-Benzyloxy-7-methoxy-2-(2,5-dimethoxybenzyl)-1,2,3,4-tetrahydroisoquinoline]			GI50 [1, 2]: 10 to 50 µM
COc1cc2c(cc1O)CCN(Cc1cccc(C)c1)C2 [compound 44, 6-Hydroxy-7-methoxy-2-(3-methylbenzyl)-1,2,3,4-tetrahydroisoquinoline]			GI50 [1, 2]: > 100 µM
COc1cc2c(cc1O)CCN(Cc1cccc(NC(C)=O)c1)C2 [compound 50, 6-Hydroxy-7-methoxy-2-(3-acetamidobenzyl)-1,2,3,4-tetrahydroisoquinoline]			GI50 [1, 2]: > 100 µM
COc1cccc(CN2CCc3cc(OS(N)(=O)=O)c(OC)cc3C2)c1 [compound 72, 7-Methoxy-2-(3-methoxybenzyl)-6-O-sulfamoyl-1,2,3,4-tetrahydroisoquinoline]	< 10		
COc1ccc(CN2CCc3cc(OS(N)(=O)=O)c(OC)cc3C2)cc1 [compound 73, 7-Methoxy-2-(4-methoxybenzyl)-6-O-sulfamoyl-1,2,3,4-tetrahydroisoquinoline]	50 to 100		
COc1cc2c(cc1OS(N)(=O)=O)CCN(Cc1ccccc1)C2 [compound 74, 2-Benzyl-7-methoxy-6-O-sulfamoyl-1,2,3,4-tetrahydroisoquinoline]	50 to 100		
COc1ccccc1CN1CCc2cc(OS(N)(=O)=O)c(OC)cc2C1 [compound 75, 7-Methoxy-2-(2-methoxybenzyl)-6-O-sulfamoyl-1,2,3,4-tetrahydroisoquinoline]	< 10		
COc1cc(CN2CCc3cc(OS(N)(=O)=O)c(OC)cc3C2)cc(OC)c1 [compound 76, 2-(3,5-Dimethoxybenzyl)-7-methoxy-6-O-sulfamoyl-1,2,3,4-tetrahydroisoquinoline]	< 10		
COc1cc2c(cc1OS(N)(=O)=O)CCN(Cc1cccc(C)c1)C2 [compound 77, 7-Methoxy-2-(3-methylbenzyl)-6-O-sulfamoyl-1,2,3,4-tetrahydroisoquinoline]	10 to 50		
COc1cc2c(cc1OS(N)(=O)=O)CCN(Cc1cccc(Oc3ccccc3)c1)C2 [compound 78, 7-Methoxy-2-(3-phenoxybenzyl)-6-O-sulfamoyl-1,2,3,4-tetrahydroisoquinoline]	10 to 50		
COc1cc2c(cc1OS(N)(=O)=O)CCN(Cc1cccc(OS(N)(=O)=O)c1)C2 [compound 79, 7-Methoxy-2-(3-(O-sulfamoyl)benzyl)-6-O-sulfamoyl-1,2,3,4-tetrahydroisoquinoline]	10 to 50		
CCOc1cccc(CN2CCc3cc(OS(N)(=O)=O)c(OC)cc3C2)c1 [compound 80, 2-(3-Ethoxybenzyl)-7-methoxy-6-O-sulfamoyl-1,2,3,4-tetrahydroisoquinoline]	< 10		
COc1cc2c(cc1OS(N)(=O)=O)CCN(Cc1cccc(C(C)=O)c1)C2 [compound 82, 2-(3-Acetylbenzyl)-7-methoxy-6-O-sulfamoyl-1,2,3,4-tetrahydroisoquinoline]	< 10		
COc1cc2c(cc1OS(N)(=O)=O)CCN(Cc1cccc(NC(C)=O)c1)C2 [compound 85, 2-(3-Acetamidobenzyl)-7-methoxy-6-O-sulfamoyl-1,2,3,4-tetrahydroisoquinoline]	> 100		
COc1cc2c(cc1OS(N)(=O)=O)CCN(Cc1cccc(OC(C)=O)c1)C2 [compound 87, 2-(3-Acetoxybenzyl)-7-methoxy-6-O-sulfamoyl-1,2,3,4-tetrahydroisoquinoline]	50 to 100		
COc1cc2c(cc1OS(N)(=O)=O)CCN(Cc1cc(OC)c(OC)c(OC)c1)C2 [compound 90, 7-Methoxy-2-(3,4,5-trimethoxybenzyl)-6-O-sulfamoyl-1,2,3,4-tetrahydroisoquinoline]	< 10		
COc1cc2c(cc1OS(N)(=O)=O)CCN(Cc1cccc(OC)c1OC)C2 [compound 91, 7-Methoxy-2-(2,3-dimethoxybenzyl)-6-O-sulfamoyl-1,2,3,4-tetrahydroisoquinoline]	< 10		
COc1ccc(CN2CCc3cc(OS(N)(=O)=O)c(OC)cc3C2)cc1OC [compound 92, 7-Methoxy-2-(3,4-dimethoxybenzyl)-6-O-sulfamoyl-1,2,3,4-tetrahydroisoquinoline]	< 10		
COc1cc2c(cc1OS(N)(=O)=O)CCN(Cc1ccc(OC)c(OC)c1OC)C2 [compound 93, 7-Methoxy-2-(2,3,4-trimethoxybenzyl)-6-O-sulfamoyl-1,2,3,4-tetrahydroisoquinoline]	10 to 50		
COc1ccc(OC)c(CN2CCc3cc(OS(N)(=O)=O)c(OC)cc3C2)c1 [compound 94, 7-Methoxy-2-(2,5-dimethoxybenzyl)-6-O-sulfamoyl-1,2,3,4-tetrahydroisoquinoline]	< 10		
COc1cc(OC)c(OC)cc1CN1CCc2cc(OS(N)(=O)=O)c(OC)cc2C1 [compound 95, 7-Methoxy-2-(2,4,5-trimethoxybenzyl)-6-O-sulfamoyl-1,2,3,4-tetrahydroisoquinoline]	< 10		

SMILES	GI50 [1, 3] [µM]	melting point [°C]	further results
COc1cc2c(cc1OS(N)(=O)=O)CCN(Cc1cccc(O)c1)C2 [compound 97, 2-(3-Hydroxybenzyl)-7-methoxy-6-O-sulfamoyl-1,2,3,4-tetrahydroisoquinoline]	50 to 100		
COc1cc2c(cc1OS(N)(=O)=O)CCN(Cc1ccc(C#N)cc1)C2 [compound 99, 2-(4-Cyanobenzyl)-7-methoxy-6-O-sulfamoyl-1,2,3,4-tetrahydroisoquinoline]	50 to 100		
COc1cc2c(cc1OS(N)(=O)=O)CCN(Cc1cccc([N+](=O)[O-])c1)C2 [compound 100, 7-Methoxy-2-(3-nitrobenzyl)-6-O-sulfamoyl-1,2,3,4-tetrahydroisoquinoline]	< 10		
COc1cc2c(cc1OS(N)(=O)=O)CCN(Cc1cccc(Cl)c1)C2 [compound 101, 2-(3-Chlorobenzyl)-7-methoxy-6-O-sulfamoyl-1,2,3,4-tetrahydroisoquinoline]	< 10		
COc1cc2c(cc1OS(N)(=O)=O)CC(C)(C)N(C(=O)c1cc(OC)c(OC)c(OC)c1)C2C (centres unmarked) [compound 247, Sulfamic acid 7-methoxy-1,3,3-trimethyl-2-(3,4,5-trimethoxy-benzoyl)-1,2,3,4-tetrahydro-isoquinolin-6-yl ester]		170 to 173	
COc1cccc(CN2CCc3cc(O)c(OC)cc3C2C)c1 (centres unmarked) [compound 253, 2-(3-Methoxybenzyl)-1,2,3,4-tetrahydro-7-methoxy-1-methylisoquinolin-6-ol]		97 to 99	
COc1cc2c(cc1OCc1ccccc1)CCC(=O)N2Cc1cc(OC)c(OC)c(OC)c1 [compound 289, 6-(Benzyloxy)-7-methoxy-1-(3,4,5-trimethoxybenzyl)-3,4-dihydro-1H-quinolin-2-one]		129 to 130	
COc1ccc(CN2C(=O)CCc3cc(O)c(OC)cc32)cc1 [compound 292, 6-Hydroxy-7-methoxy-1-(4-methoxybenzyl)-3,4-dihydro-1H-quinolin-2-one]		168 to 169	
COc1cc2c(cc1O)CCC(=O)N2Cc1cc(OC)c(OC)c(OC)c1 [compound 293, 6-Hydroxy-7-methoxy-1-(3,4,5-trimethoxybenzyl)-3,4-dihydro-1H-quinolin-2-one]		157 to 158	
COc1ccccc1CN1CCCc2cc(OCc3ccccc3)c(OC)cc2C1 [compound 302, 7-Benzyloxy-8-methoxy-2-(2-methoxybenzyl)-2,3,4,5-tetrahydro-1H-benzo[c]azepine]		105 to 106	
COc1cccc(CC2CCCc3cc(OCc4ccccc4)c(OC)cc3N2)c1 (centres unmarked) [compound 303, 7-Benzyloxy-8-methoxy-2-(3-methoxybenzyl)-2,3,4,5-tetrahydro-1H-benzoazepine]		92 to 93	
COc1ccc(CN2CCCc3cc(OCc4ccccc4)c(OC)cc3C2)cc1 [compound 304, 7-Benzyloxy-8-methoxy-2-(4-methoxybenzyl)-2,3,4,5-tetrahydro-1H-benzo[c]azepine]		87 to 88	
COc1cc2c(cc1OCc1ccccc1)CCCN(Cc1cc(OC)c(OC)c(OC)c1)C2 [compound 305, 7-Benzyloxy-8-methoxy-2-(3,4,5-trimethoxybenzyl)-2,3,4,5-tetrahydro-1H-benzo[c]azepine]		44 to 46	
COc1cc2c(cc1O)CCCN(Cc1ccccc1OC)C2 [compound 306, 7-Hydroxy-8-methoxy-2-(2-methoxybenzyl)-2,3,4,5-tetrahydro-1H-benzo[c]azepine]		136 to 137	
COc1cccc(CN2CCCc3cc(O)c(OC)cc3C2)c1 [compound 307, 7-Hydroxy-8-methoxy-2-(3-methoxybenzyl)-2,3,4,5-tetrahydro-1H-benzo[e]azepine]		114 to 115	
COc1ccc(CN2CCCc3cc(O)c(OC)cc3C2)cc1 [compound 308, 7-Hydroxy-8-methoxy-2-(4-methoxybenzyl)-2,3,4,5-tetrahydro-1H-benzo[c]azepine]		105 to 107	
COc1cc2c(cc1O)CCCN(Cc1cc(OC)c(OC)c(OC)c1)C2 [compound 309, 7-Hydroxy-8-methoxy-2-(3,4,5-trimethoxybenzyl)-2,3,4,5-tetrahydro-1H-benzo[c]azepine]		46 to 48	
COc1cc2c(cc1OCc1ccccc1)CCCN(Cc1cc(OC)c(OC)c(OC)c1)C2=O [compound 314, 7-Benzyloxy-8-methoxy-2-(3,4,5-trimethoxybenzyl)-2,3,4,5-tetrahydro-1H-benzo[c]azepin-1-one]		134 to 135	
COc1cc2c(cc1OCc1ccccc1)CCCC(=O)N2Cc1cc(OC)c(OC)c(OC)c1 [compound 318, 7-benzyloxy-8-methoxy-1-(3,4,5-trimethoxybenzyl)-4,5-dihydro-1H-benzo[b]azepin-2(3H)-one]		129 to 130	
COc1cc2c(cc1O)CCCC(=O)N2Cc1cc(OC)c(OC)c(OC)c1 [compound 319, 7-Hydroxy-8-methoxy-1-(3,4,5-trimethoxybenzyl)-4,5-dihydro-1H-benzo[b]azepin-2(3H)-one]		170 to 171	

Reference: patent publication US8394825B2, “Compound” (Sterix Limited, priority 2007, dated 2013)
